The structures appear in SMILES notation. pIC50: −log10 of the molar value.

The target in the first assay is T1, human JAK3 kinase domain (Homo sapiens, UniProt P52333).
T1 construct: attached to the N-terminal of the 796-1124 (C-terminal) fragment of the human JAK3 protein; His-tag (N); purchased Carna Biosciences, Inc. (Kobe, Japan); host or cells: baculovirus expression system
T1 sequence (P52333 796-1124): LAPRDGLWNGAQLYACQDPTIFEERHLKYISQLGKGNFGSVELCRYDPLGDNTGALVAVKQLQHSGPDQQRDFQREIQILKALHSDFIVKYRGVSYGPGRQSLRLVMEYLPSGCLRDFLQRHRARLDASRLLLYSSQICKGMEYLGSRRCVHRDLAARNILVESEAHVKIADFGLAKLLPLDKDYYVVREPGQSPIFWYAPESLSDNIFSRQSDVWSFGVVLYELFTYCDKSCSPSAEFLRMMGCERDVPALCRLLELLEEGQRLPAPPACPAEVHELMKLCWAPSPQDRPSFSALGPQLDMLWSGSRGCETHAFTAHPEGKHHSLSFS
In words: JAK3 inhibition test. The following applies: 20 μM ATP in substrate solution, Biotin-Lyn-Substrate-2, one hour at ambient temperature; compounds of the Examples. The class given is biochemical. Here is the method: The JAK3 inhibition test was performed as described below
Purified human JAK3 kinase domain was purchased from Carna Biosciences, Inc. (Kobe, Japan). This was afforded as described below.
As an assay buffer, 15 mM Tris-HCl pH 7.5 containing 0.01% Tween 20 and 2 mM DTT (dithiothreitol) was used.
After incubation at ambient temperature for one hour, the plate was washed with a cleaning buffer (50 mM Tris-HCl pH 7.5, 150 mM NaCl, 0.02% Tween 20), and a blocking buffer (a cleaning buffer containing 0.1% bovine serum albumin) was added to the plate. After incubation at ambient temperature for 30 minutes, the blocking buffer was removed, and an HRP-PY-20 solution (afforded by diluting HRP-PY-20 solution with the blocking buffer 500 times) was added. After incubation at ambient temperature for 30 minutes, the plate was washed four times, and a TMB substrate solution (Sigma) was added to the plate. After incubation at ambient temperature for 4 minutes, 1M sulfuric acid was added to stop the reaction. Enzyme activity was measured as absorbance at 450 nm.
For `C[C@@H]1CN(c2ccc(C#N)nn2)CC[C@@H]1Nc1c(C(N)=O)cnc2[nH]ccc12` (racemic) [Example 66], the negative logarithm of the IC50 (pIC50) (in general, the negative decadic logarithm of the IC50, by convention in mol/L) was 9.00.

For the compound `C[C@@H]1CCN(C(=O)N2CCC=N2)C[C@@H]1n1c(=O)[nH]c2cnc3[nH]ccc3c21` (racemic) [Example 110], the pIC50 was 8.00.

`C[C@@H]1CCN(C(=O)CC#N)C[C@@H]1n1nc(N)c2cnc3[nH]ccc3c21` (racemic) [Example 21]: the pIC50 is 9.28.

`N#Cc1ccc(N2CC[C@@H](Nc3c(C(N)=O)cnc4[nH]ccc34)[C@H](F)C2)nc1` (racemic) [Example 82] showed a pIC50 of 8.57.

With `C[C@@H]1CN(c2ccc(C#N)cn2)CC[C@@H]1Nc1c(C(N)=O)cnc2[nH]ccc12` (racemic) [Example 65], the pIC50 is 9.11.

`N#Cc1ccc(N2CC[C@@H](Nc3c(C(N)=O)cnc4[nH]ccc34)[C@@H](F)C2)nn1` (racemic) [Example 6, 4-{[(3S,4R)-1-(6-cyanopyridazine-3-yl)-3-fluoropiperidine-4-yl]amino}-1H-pyrrolo[2,3-b]pyridine-5-carboxamide and 4-{[(3R,4S)-1-(6-cyanopyridazine-3-yl)-3-fluoropiperidine-4-yl]amino}-1-1H-pyrrolo[2,3-b]pyridine-5-carboxamide] showed a pIC50 of 9.12.

With `NC(=O)c1cnc2[nH]ccc2c1N[C@@H]1CCN(c2ccc(C(F)(F)F)nn2)C[C@@H]1F` (racemic) [Example 91], the pIC50 is 8.49.

`C[C@@H]1CCN(C(=O)N2C[C@@H](F)C[C@H]2C#N)C[C@@H]1n1c(=O)[nH]c2cnc3[nH]ccc3c21` (mixture of isomers) [Example 2, (2R,4R)-4-fluoro-1-{[(3S,4S)-4-methyl-3-(2-oxo-3,6-dihydroimidazo[4,5-d]pyrrolo[2,3-b]pyridine-1(2H)-yl)-piperidine-1-yl]carbonyl}pyrrolidine-2-carbonitrile and (2R,4R)-4-fluoro-1-{[(3R,4R)-4-methyl-3-(2-oxo-3,6-dihydroimidazo[4,5-d]pyrrolo[2,3-b]pyridine-1(2H)-yl)-piperidine-1-yl]carbonyl}pyrrolidine-2-carbonitrile] showed a pIC50 of 9.07.

The compound `N#Cc1ccc(N2CC[C@@H](Nc3c(C(N)=O)cnc4[nH]ccc34)[C@@H](F)C2)nc1` (racemic) [Example 41] showed a pIC50 of 8.96.

`CNC(=O)C(=O)Nc1nn([C@H]2CN(c3ccc([N+](=O)[O-])cn3)CC[C@H]2C)c2c1cnc1[nH]ccc12` (racemic) [Example 77]: the pIC50 is 8.32.

Compound `C[C@H]1CN(c2ccc(C#N)cn2)CC[C@H]1Nc1c(C(N)=O)cnc2[nH]cnc12` (racemic) [Example 49] showed a pIC50 of 8.66.

Take `N#Cc1ccc(N2CC[C@@H](Nc3c(C(N)=O)cnc4[nH]ccc34)[C@@H](F)C2)nc1` [Example 94]: the negative-log IC50 (pIC50) was 9.52.

Compound `C[C@@H]1CCN(C(=O)CC#N)C[C@@H]1n1[nH]c(=O)c2cnc3[nH]ccc3c21` (racemic) [Example 22] showed a pIC50 of 8.77.

Compound `N#Cc1ccc(N2CCC(Nc3c(C(N)=O)cnc4[nH]ccc34)CC2)cc1` [Example 58] had a pIC50 of 8.47.

In turn, `CC[C@@H]1CCCC[C@@H]1n1nc(N)c2cnc3[nH]ccc3c21` [Example 129] had a pIC50 of 8.42.

Compound `Nc1nn(C2CCCCCC2)c2c1cnc1[nH]ccc12` [Example 12, 1-cycloheptyl-1,6-dihydropyrazolo-[3,4-d]pyrrolo[2,3-b]pyridine-3-amine] showed a pIC50 of 8.00.

The compound `C[C@@H]1CCN(c2ccc(C#N)cn2)C[C@@H]1n1[nH]c(=O)c2cnc3[nH]ccc3c21` (racemic) [Example 72] showed a pIC50 of 8.80.

The assay is the same for the next values; noted with them: reference compounds produced according to the cited publications, compared in the JAK3 test.
On to `C[C@@H]1CCN(S(=O)(=O)c2cccnc2)C[C@@H]1N(C)c1ccnc2[nH]ccc12` [Reference compound A, reference compound], for which the pIC50 is 6.64.

`CS(=O)(=O)N1CCCC(Nc2c(Cl)cnc3[nH]ccc23)C1` (centres unmarked) [Reference compound B, reference compound] had a pIC50 of 7.51.

The target in another assay is HERG (Homo sapiens, UniProt Q12809). In words: HERG assay. Particulars: low adverse effect.
HERG, sequence (Q12809 whole entry): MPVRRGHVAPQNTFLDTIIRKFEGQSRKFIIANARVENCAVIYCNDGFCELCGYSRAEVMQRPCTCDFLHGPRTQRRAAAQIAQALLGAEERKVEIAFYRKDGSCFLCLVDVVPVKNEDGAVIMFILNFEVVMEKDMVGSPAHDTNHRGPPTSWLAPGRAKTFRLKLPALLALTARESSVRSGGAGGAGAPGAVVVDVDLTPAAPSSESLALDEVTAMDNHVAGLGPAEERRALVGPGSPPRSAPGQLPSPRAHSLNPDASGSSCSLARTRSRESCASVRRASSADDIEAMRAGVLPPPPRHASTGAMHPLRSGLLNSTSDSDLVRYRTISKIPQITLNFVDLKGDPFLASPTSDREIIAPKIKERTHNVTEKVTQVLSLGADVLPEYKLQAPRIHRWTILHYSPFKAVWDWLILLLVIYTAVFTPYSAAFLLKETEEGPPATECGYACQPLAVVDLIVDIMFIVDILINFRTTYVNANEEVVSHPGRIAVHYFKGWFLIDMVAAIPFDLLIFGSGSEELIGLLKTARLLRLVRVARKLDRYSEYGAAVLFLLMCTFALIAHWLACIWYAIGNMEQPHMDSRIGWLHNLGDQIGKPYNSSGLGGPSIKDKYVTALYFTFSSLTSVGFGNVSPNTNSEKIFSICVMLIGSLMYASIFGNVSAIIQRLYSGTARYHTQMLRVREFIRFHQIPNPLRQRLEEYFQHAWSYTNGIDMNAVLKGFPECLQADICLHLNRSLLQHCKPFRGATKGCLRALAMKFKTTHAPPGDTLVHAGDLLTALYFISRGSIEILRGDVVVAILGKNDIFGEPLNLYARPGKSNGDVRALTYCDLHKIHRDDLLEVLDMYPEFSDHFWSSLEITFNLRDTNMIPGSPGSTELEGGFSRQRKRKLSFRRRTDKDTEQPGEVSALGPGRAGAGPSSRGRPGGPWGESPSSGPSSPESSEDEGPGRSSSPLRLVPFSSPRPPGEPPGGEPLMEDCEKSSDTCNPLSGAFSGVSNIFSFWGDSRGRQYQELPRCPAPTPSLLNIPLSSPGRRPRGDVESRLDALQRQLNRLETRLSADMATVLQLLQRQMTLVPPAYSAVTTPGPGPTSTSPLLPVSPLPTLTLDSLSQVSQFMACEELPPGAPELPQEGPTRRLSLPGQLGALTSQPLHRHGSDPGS
`N#Cc1ccc(N2CC[C@@H](Nc3c(C(N)=O)cnc4[nH]ccc34)[C@@H](F)C2)nc1` (racemic) [Example 41] gave a pIC50 not above 4.00.

(Values after patent publication US20100105661A1, “CONDENSED PYRIDINE COMPOUND” (Astellas Pharma Inc., priority 2007, published 2010).)
